Test results reported in ChEMBL document CHEMBL4350994, “Andrographolide: A natural product template for the generation of structurally and biologically diverse diterpenes” (Eur J Med Chem, 2019).

Legend:
DU-145 = experiment: Growth inhibition of human DU145 cells; assay type: functional
Bile acid receptor [1] = biological target: T1, Bile acid receptor (Homo sapiens, UniProt Q96RI1); experiment: Antagonist activity at FXR (unknown origin)
T1 sequence (Q96RI1 whole entry): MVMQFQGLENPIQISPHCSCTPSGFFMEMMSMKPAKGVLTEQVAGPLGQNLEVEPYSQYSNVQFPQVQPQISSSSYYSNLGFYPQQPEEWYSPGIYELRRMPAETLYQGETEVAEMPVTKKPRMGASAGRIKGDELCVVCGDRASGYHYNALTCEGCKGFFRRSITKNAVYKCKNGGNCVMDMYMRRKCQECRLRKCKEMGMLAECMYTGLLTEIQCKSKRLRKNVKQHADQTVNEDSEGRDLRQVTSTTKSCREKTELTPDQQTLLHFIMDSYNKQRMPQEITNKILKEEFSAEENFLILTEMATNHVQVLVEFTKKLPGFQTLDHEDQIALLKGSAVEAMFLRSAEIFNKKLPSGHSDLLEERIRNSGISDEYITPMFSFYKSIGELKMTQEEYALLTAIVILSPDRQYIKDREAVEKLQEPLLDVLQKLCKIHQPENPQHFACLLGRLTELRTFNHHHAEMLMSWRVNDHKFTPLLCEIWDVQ

U-251 = experiment: Growth inhibition of human U251 cells; assay type: functional
[2] = Growth inhibition of human OVCAR1 cells; assay type: functional
NCI/ADR-RES = experiment: Growth inhibition of human MCF7/ADR cells; assay type: functional
SW-620 = experiment: Growth inhibition of human SW620 cells; assay type: functional
SK-OV-3 = experiment: Growth inhibition of human SKOV3 cells; assay type: functional
A498 = experiment: Growth inhibition of human A498 cells; assay type: functional
Rattus norvegicus = experiment: Hypoglycemic activity in diabetic rat assessed as decrease in blood glucose level at 150 mg/kg after 24 hrs relative to control; assay type: functional; set-up: scale not given: the % may be the effect or the level left
Mus musculus [3] = experiment: Hypoglycemic activity in db/db mouse assessed as decrease in blood glucose level at 100 mg/kg administered daily for 6 days relative to control; assay type: functional; set-up: scale not given: the % may be the effect or the level left
MCF7 = experiment: Growth inhibition of human MCF7 cells; assay type: functional
Bile acid receptor [4] = biological target: T1, Bile acid receptor; experiment: Antagonist activity at Gal4 DBD-fused human FXR LBD expressed in human HepG2 cells after 8 hrs by luciferase reporter gene assay; assay type: cell-based
Mus musculus [5] = experiment: Decrease in plasma triglycerides level in db/db mouse at 100 mg/kg administered daily for 6 days relative to control; assay type: functional; set-up: scale not given: the % may be the effect or the level left
H5N1 subtype = experiment: Antiviral activity against H5N1 subtype infected in MDCK cells after 2 to 3 days; assay type: functional, organism-based; details: Influenza A virus
[6] = Selectivity index, ratio of CC50 for MDCK cells to EC50 for H1N1 subtype
[7] = Antiviral activity against H9N2 subtype infected in MDCK cells after 2 to 3 days; assay type: functional, cell-based; details: Influenza A virus
[8] = Selectivity index, ratio of CC50 for MDCK cells to EC50 for H5N1 subtype
[9] = Selectivity index, ratio of CC50 for MDCK cells to EC50 for H9N2 subtype
[10] = Antiviral activity H1N1 subtype infected in MDCK cells after 2 to 3 days; assay type: functional, cell-based; details: Influenza A virus
[11] = Cytotoxicity against human KKU-M213 cells assessed as reduction in cell viability after 24 hrs by MTT assay; assay type: functional, cell-based; details: KKU-M213, 24 h

`C=C1CC[C@@H]2[C@](C)(CO)[C@H](O)CC[C@@]2(C)[C@@H]1C/C=C/c1cccc(Cl)c1` showed a GI50 (DU-145) of 2000 to 27000 nM.
With `C=C1CC[C@@H]2[C@](C)(CO)[C@H](O)CC[C@@]2(C)[C@@H]1C/C=C1/C(=O)OC[C@@H]1Oc1ccccc1OC` the IC50 (Bile acid receptor [1]) was 550 to 2000 nM.
For `C=C1CC[C@@H]2[C@]3(C)COC(C)(C)O[C@@H]3CC[C@@]2(C)[C@@H]1Cc1cc(=O)[nH]c(N)n1`, the GI50 (DU-145) was 200 nM.
For `C=C1CC[C@@H]2[C@](C)(COC(C)=O)[C@H](OC(C)=O)CC[C@@]2(C)[C@@H]1C/C=C1/C(=O)OC[C@H]1OC(=O)CNC(C)=O`, the GI50 (U-251) was 1500 nM.
Work on `C=C1CC[C@@H]2[C@]3(C)COC(C)(c4ccccc4)O[C@@H]3CC[C@@]2(C)[C@@H]1CC(C1=CCOC1=O)N1CCCC1C(=O)OC` (some centres not stated) yielded a GI50 [2] of 1000 nM.
For `CCC(=O)OC[C@@]1(C)[C@H]2CC[C@@]3(CO3)[C@@H](C/C=C3/C(=O)OC[C@H]3OC(=O)/C=C/c3ccc(OC)c(OC)c3)[C@]2(C)CC[C@H]1OC(=O)CC`, the GI50 (U-251) was 400 to 7500 nM, the GI50 (NCI/ADR-RES) was 400 to 7500 nM and the GI50 (DU-145) was 400 to 7500 nM. The GI50 (SW-620) was 400 to 7500 nM, the GI50 (SK-OV-3) was 400 to 7500 nM and the GI50 (A498) was 400 to 7500 nM.
With `C[C@]1(CO)[C@H]2CC[C@@]3(CO3)[C@@H](C/C=C3/C(=O)OC[C@H]3OC(=O)/C=C/c3ccccc3)[C@]2(C)CC[C@H]1O` the GI50 (U-251) was 500 to 9000 nM, the GI50 (NCI/ADR-RES) was 500 to 9000 nM and the GI50 (DU-145) was 500 to 9000 nM. The GI50 (SW-620) was 500 to 9000 nM, the GI50 (SK-OV-3) was 500 to 9000 nM and the GI50 (A498) was 500 to 9000 nM.
In the case of `COc1ccc(Cl)cc1C(=O)NCCc1ccc(S(=O)(=O)NC(=O)NC2CCCCC2)cc1` [GLYBURIDE], the Activity (Rattus norvegicus) is reported as 62.02%.
`C=C1CC[C@@H]2[C@](C)(CO)[C@H](O)CC[C@@]2(C)[C@@H]1C/C=C1/C(=O)OC[C@H]1O` [ANDROGRAPHOLIDE] gave a GI50 (U-251) of 3000 to 20000 nM, an Activity (Mus musculus [3]) of 64% and a GI50 (MCF7) of 3000 to 20000 nM. It also gave an IC50 (Bile acid receptor [1]) of 9700 nM, a GI50 (NCI/ADR-RES) of 3000 to 20000 nM and an IC50 (Bile acid receptor [4]) of 9700 nM. It also gave a GI50 (DU-145) of 3000 to 20000 nM, a GI50 (SW-620) of 3000 to 20000 nM and a GI50 (SK-OV-3) of 3000 to 20000 nM. It also gave a GI50 [2] of 3000 to 20000 nM, a GI50 (A498) of 3000 to 20000 nM and an Activity (Mus musculus [5]) of 54%.
Molecule `CC(=O)OC[C@@]1(C)[C@H]2CC[C@@]3(CO3)[C@@H](C/C=C3/C(=O)OC[C@H]3OC(C)=O)[C@]2(C)CC[C@H]1OC(C)=O` has a GI50 (U-251) of 250 to 5000 nM, a GI50 (NCI/ADR-RES) of 250 to 5000 nM and a GI50 (DU-145) of 250 to 5000 nM. The GI50 (SW-620) was 250 to 5000 nM, the GI50 (SK-OV-3) was 250 to 5000 nM and the GI50 (A498) was 250 to 5000 nM.
`CCC(=O)OC[C@@]1(C)[C@H]2CC[C@@]3(CO3)[C@@H](C/C=C3/C(=O)OC[C@H]3OC(=O)/C=C/c3cccc(OC)c3)[C@]2(C)CC[C@H]1OC(=O)CC` showed a GI50 (U-251) of 600 to 4800 nM, a GI50 (NCI/ADR-RES) of 600 to 4800 nM and a GI50 (DU-145) of 600 to 4800 nM. For the same molecule, the GI50 (SW-620) was 600 to 4800 nM, the GI50 (SK-OV-3) was 600 to 4800 nM and the GI50 (A498) was 600 to 4800 nM.
In the case of `C=C1CC[C@@H]2[C@]3(C)COC(C)(c4ccccc4)O[C@@H]3CC[C@@]2(C)[C@@H]1CC(NC(Cc1ccccc1)C(=O)OC)C1=CCOC1=O` (some centres not stated), the GI50 [2] is reported as 1400 nM.
With `C=C1CC[C@@H]2[C@](C)(CO)[C@H](O)CC[C@@]2(C)[C@@H]1C/C=C1/C(=O)OC[C@H]1OC(=O)Nc1ccccc1` the GI50 (NCI/ADR-RES) was 400 nM.
For `C=C1CC[C@@H]2[C@](C)(CO)[C@H](O)CC[C@@]2(C)[C@@H]1C/C=C/c1ccc(F)cc1`, the GI50 (DU-145) was 2000 to 27000 nM.
For `C=C1CC[C@@H]2[C@](C)(COC(C)=O)[C@H](OC(C)=O)CC[C@@]2(C)[C@@H]1CC(C1=CCOC1=O)n1cc(I)c(=O)[nH]c1=O` (some centres not stated), the GI50 (U-251) was 2000 nM, the GI50 (MCF7) was 2000 nM and the GI50 (NCI/ADR-RES) was 2000 nM. The GI50 [2] was 2000 nM.
For `CC(=O)OC[C@@]1(C)[C@H]2CC[C@@]3(CO3)[C@@H](CC(Sc3ccccc3)C3=CCOC3=O)[C@]2(C)CC[C@H]1OC(C)=O` (some centres not stated), the GI50 (DU-145) was 2000 nM.
`CCC(=O)OC[C@@]1(C)[C@H]2CC[C@@]3(CO3)[C@@H](C/C=C3/C(=O)OC[C@H]3OC(=O)/C=C/c3ccccc3)[C@]2(C)CC[C@H]1OC(=O)CC` gave a GI50 (U-251) of 80 to 6000 nM, a GI50 (NCI/ADR-RES) of 80 to 6000 nM and a GI50 (DU-145) of 80 to 6000 nM. The GI50 (SW-620) was 80 to 6000 nM, the GI50 (SK-OV-3) was 80 to 6000 nM and the GI50 (A498) was 80 to 6000 nM.
In the case of `C=C1CC[C@@H]2[C@](C)(CO)[C@H](O)CC[C@@]2(C)[C@@H]1C/C=C1/C(=O)OC[C@H]1OC(=O)CCCCC1CCSS1` (some centres not stated), the EC50 (H5N1 subtype) is reported as 7200 to 15200 nM, the “Selectivity Index” value [6] is reported as 51 - 109 and the EC50 [7] is reported as 7200 to 15200 nM. For the same molecule, the “Selectivity Index” value [8] was 51 - 109, the “Selectivity Index” value [9] was 51 - 109 and the EC50 [10] was 7200 to 15200 nM.
`CC(C)(C)[Si](OC[C@@]1(C)[C@H]2CC[C@@]3(CO3)[C@@H](C/C=C3/C(=O)OC[C@H]3O)[C@]2(C)CC[C@H]1O)(c1ccccc1)c1ccccc1` showed an IC50 [11] of 8000 nM.
With `C=C1CC[C@@H]2[C@](C)(CO)[C@H](O)CC[C@@]2(C)[C@@H]1C/C=C1/SC(=O)NC1=O` the GI50 (DU-145) was 780 nM.
Work on `C=C1CC[C@@H]2[C@](C)(CO)[C@H](O)CC[C@@]2(C)[C@@H]1C/C=C1/C(=O)OC[C@H]1OC(=O)c1ccccc1` yielded a GI50 (U-251) of 1500 nM.
Work on `C=C1CC[C@@H]2[C@](C)(CO)[C@H](O)CC[C@@]2(C)[C@@H]1C/C=C/c1ccccc1` yielded a GI50 (DU-145) of 2000 to 27000 nM.
Molecule `C=C1CC[C@@H]2[C@]3(C)COC(C)(C)O[C@@H]3CC[C@@]2(C)[C@@H]1C/C=C1/C(=O)OC[C@@H]1Oc1ccc([N+](=O)[O-])cc1OC` has an IC50 (Bile acid receptor [1]) of 550 to 2000 nM.
